The text below walks through data of patent US20230192700A1, “PYRAZOLOPYRAZINES ACTING ON CANCERS VIA INHIBITION OF CDK12” (Bayer Aktiengesellschaft, priority 2020, published 2023).

The target of one test is T1, CDK12 (Homo sapiens, UniProt Q9NYV4).
T1 construct: endogenous in cells; host or cells: CAL-120 human breast cancer cells (DSMZ ACC 459)
Briefly: CDK12 nuclear protein level: immunofluorescence/high content analysis in CAL-120 cells. The class given is cell-based. Particulars: for DC50: CAL-120 cells, 24 h, nuclear CDK12 staining intensity, median, read-out: CDK12 degradation IF DC50 - [mol/l] (median); for (IC50 CDK12 high ATP) to (Degradation DC50 CDK12) ratio: ratio of IC50 CDK12 hATP (2 mM ATP) to DC50 CDK12 (IF, CAL-120). In a few lines: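 Cells were exposed to compounds in dose-response for 24 h at 37 °C, then PFA-fixed, immunostained for CDK12 and counterstained with Hoechst before confocal imaging. Nuclear CDK12 intensity was normalized to DMSO and control. DC50 is the concentration giving 50% reduction of nuclear staining.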

The next test deals with T2, CDK12/CyclinK (Homo sapiens, UniProt Q9NYV4).
T2 construct: His-CDK12 (aa Q696-S1082); made in house; host or cells: Hi-5 insect cells (baculovirus co-infection with CycK and yeast CAK1)
Briefly: CDK12/CycK high ATP kinase assay (TR-FRET). The format is biochemical. The settings on record: 2 mM ATP (high ATP); median; read-out: CDK12/CyclinK, 2 mM ATP (high ATP), IC50 - [mol/l] (median). In a few lines:
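Human His-tagged CDK12/CycK (about 0.75 nM) preincubated with compound 15 min, then reacted 60 min at 22 °C with 2 mM ATP and 1 µM biotinylated peptide in HEPES pH 7.5 buffer. Phospho-Ser62 c-Myc epitope detected by TR-FRET (665/620 nm ratio); data normalised to no-inhibitor and no-enzyme controls.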

T2 sequence (Q9NYV4 with tags, fused parts or gaps): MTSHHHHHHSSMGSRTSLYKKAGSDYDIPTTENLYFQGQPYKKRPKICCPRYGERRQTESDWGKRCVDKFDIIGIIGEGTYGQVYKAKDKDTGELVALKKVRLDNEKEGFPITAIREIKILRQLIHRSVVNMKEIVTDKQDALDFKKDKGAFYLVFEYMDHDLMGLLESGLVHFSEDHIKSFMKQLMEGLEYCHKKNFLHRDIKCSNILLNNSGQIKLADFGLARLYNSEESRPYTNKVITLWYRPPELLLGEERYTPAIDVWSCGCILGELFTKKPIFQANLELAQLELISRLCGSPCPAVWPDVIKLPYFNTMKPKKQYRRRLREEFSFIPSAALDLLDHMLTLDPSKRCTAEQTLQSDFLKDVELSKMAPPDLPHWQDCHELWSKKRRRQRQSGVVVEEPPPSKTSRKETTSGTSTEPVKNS
T2 sequence (O75909 with tags, fused parts or gaps partner limits assumed): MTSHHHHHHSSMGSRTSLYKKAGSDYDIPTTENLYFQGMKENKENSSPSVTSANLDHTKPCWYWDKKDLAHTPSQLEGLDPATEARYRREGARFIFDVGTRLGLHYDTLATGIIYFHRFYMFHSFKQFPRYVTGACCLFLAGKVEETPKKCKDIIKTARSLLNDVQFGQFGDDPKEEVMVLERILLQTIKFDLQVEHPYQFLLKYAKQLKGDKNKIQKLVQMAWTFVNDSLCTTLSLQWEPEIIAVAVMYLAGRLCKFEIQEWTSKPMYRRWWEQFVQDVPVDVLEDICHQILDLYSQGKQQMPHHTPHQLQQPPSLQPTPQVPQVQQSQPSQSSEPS
T1 sequence (Q9NYV4 whole entry): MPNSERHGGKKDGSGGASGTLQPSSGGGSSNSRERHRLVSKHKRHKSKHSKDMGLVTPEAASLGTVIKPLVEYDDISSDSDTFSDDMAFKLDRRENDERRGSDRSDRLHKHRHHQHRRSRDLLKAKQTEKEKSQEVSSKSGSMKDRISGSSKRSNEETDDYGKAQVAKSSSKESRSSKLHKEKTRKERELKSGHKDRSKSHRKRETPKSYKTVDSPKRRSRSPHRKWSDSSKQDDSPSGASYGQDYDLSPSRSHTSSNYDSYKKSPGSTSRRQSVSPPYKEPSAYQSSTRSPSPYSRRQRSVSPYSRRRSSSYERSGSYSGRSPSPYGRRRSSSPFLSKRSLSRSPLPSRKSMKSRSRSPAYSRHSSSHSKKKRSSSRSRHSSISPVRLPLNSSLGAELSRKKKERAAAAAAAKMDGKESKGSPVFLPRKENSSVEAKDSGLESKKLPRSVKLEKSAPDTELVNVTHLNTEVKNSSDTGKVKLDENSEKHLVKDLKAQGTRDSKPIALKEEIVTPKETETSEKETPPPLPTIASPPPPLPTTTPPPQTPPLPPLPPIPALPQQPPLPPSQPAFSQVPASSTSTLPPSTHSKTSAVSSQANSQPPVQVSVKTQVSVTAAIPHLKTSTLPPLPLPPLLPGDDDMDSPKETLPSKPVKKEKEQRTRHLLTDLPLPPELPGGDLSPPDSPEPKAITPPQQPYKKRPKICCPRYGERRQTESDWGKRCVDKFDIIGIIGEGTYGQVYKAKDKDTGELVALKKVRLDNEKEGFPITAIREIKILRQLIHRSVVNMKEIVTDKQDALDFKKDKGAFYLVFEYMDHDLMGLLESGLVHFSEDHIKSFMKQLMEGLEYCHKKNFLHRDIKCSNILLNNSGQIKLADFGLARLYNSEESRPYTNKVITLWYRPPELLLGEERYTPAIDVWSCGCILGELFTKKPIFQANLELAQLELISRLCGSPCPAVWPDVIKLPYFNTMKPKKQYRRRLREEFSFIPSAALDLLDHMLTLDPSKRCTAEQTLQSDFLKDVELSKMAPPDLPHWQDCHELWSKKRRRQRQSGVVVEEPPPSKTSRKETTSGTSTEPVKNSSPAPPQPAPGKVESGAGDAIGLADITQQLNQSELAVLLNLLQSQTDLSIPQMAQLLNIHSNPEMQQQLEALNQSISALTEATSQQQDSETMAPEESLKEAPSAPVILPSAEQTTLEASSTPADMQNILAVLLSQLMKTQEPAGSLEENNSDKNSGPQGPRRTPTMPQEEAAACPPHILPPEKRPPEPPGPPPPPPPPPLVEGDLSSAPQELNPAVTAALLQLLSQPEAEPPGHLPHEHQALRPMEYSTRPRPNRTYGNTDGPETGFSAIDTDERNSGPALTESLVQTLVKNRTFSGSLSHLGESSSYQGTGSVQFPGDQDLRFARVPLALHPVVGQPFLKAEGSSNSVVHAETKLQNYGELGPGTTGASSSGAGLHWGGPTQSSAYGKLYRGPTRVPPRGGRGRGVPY
T1 sequence (O75909 whole entry partner): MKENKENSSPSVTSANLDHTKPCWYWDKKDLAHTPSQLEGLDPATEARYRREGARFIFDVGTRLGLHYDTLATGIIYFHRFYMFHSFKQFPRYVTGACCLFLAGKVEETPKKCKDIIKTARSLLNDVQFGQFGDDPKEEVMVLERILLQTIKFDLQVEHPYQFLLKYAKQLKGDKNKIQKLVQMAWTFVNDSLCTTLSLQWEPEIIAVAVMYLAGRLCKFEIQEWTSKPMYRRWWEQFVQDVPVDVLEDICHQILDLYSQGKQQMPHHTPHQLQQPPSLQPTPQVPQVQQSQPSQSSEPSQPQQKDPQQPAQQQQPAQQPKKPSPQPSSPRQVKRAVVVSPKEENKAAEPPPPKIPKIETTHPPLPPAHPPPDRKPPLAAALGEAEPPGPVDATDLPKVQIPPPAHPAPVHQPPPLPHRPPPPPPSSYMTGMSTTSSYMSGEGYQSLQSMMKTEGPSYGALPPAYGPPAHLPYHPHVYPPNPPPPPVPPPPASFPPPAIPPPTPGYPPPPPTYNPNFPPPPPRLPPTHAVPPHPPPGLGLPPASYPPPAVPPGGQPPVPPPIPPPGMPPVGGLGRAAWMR

With `O=CO.c1ccc(-n2nc(NCc3nc4ccccc4[nH]3)c3ncc(C4CC4)nc32)cc1` [Example 13, formic acid—N-[(1H-benzimidazol-2-yl)methyl]-6-cyclopropyl-1-phenyl-1H-pyrazolo[3,4-b]pyrazin-3-amine (1/1)], on CDK12, the DC50 amounted to 43.9 nM and the “(IC50 CDK12 high ATP) to (Degradation DC50 CDK12) ratio” value was over 455. Also, the IC50 on CDK12/CyclinK is over 20 µM.

Regarding `CC(C)n1nc(NCc2nc3ccccc3[nH]2)c2ncc(C3CC3)nc21` [Example 14, N-[(1H-benzimidazol-2-yl)methyl]-6-cyclopropyl-1-(propan-2-yl)-1H-pyrazolo[3,4-b]pyrazin-3-amine], at CDK12, the DC50 turned out to be 49.6 nM and the “(IC50 CDK12 high ATP) to (Degradation DC50 CDK12) ratio” value is over 403. The IC50 on CDK12/CyclinK is over 20 µM.

As to `Cn1nc(NCc2nc3ccccc3[nH]2)c2ncc(C3CC3)nc21` [Example 15, N-[(1H-benzimidazol-2-yl)methyl]-6-cyclopropyl-1-methyl-1H-pyrazolo[3,4-b]pyrazin-3-amine], at CDK12, the DC50 came out at 155 nM and the “(IC50 CDK12 high ATP) to (Degradation DC50 CDK12) ratio” value is given as over 129. For the same compound, the IC50 at CDK12/CyclinK is over 20 µM.

With `c1ccc2[nH]c(CNc3nn(C4CCOCC4)c4nc(C5CC5)cnc34)nc2c1` [Example 16, N-[(1H-benzimidazol-2-yl)methyl]-6-cyclopropyl-1-(oxan-4-yl)-1H-pyrazolo[3,4-b]pyrazin-3-amine], on CDK12, the DC50 worked out at 84 nM and the “(IC50 CDK12 high ATP) to (Degradation DC50 CDK12) ratio” value is over 238. Also, the IC50 at CDK12/CyclinK is over 20 µM.

For `CN1CCC(n2nc(NCc3nc4cc(Cl)c(Cl)cc4[nH]3)c3ncc(C4CC4)nc32)CC1` [Example 19, 6-cyclopropyl-N-[(5,6-dichloro-1H-benzimidazol-2-yl)methyl]-1-(1-methylpiperidin-4-yl)-1H-pyrazolo[3,4-b]pyrazin-3-amine], at CDK12, the DC50 came to 4.66 nM and the “(IC50 CDK12 high ATP) to (Degradation DC50 CDK12) ratio” value is listed as over 4294. On CDK12/CyclinK, the IC50 is over 20 µM.

In the case of `CN1CCC(n2nc(NCc3nc4c(Br)cccc4[nH]3)c3ncc(C4CC4)nc32)CC1` [Example 20, N-[(4-bromo-1H-benzimidazol-2-yl)methyl]-6-cyclopropyl-1-(1-methylpiperidin-4-yl)-1H-pyrazolo[3,4-b]pyrazin-3-amine], at CDK12, the DC50 was 22.2 nM and the “(IC50 CDK12 high ATP) to (Degradation DC50 CDK12) ratio” value is over 1050. In addition, on CDK12/CyclinK, the IC50 is over 20 µM.

Regarding `Cc1c(Cl)ccc2[nH]c(CNc3nn(C4CCN(C)CC4)c4nc(C5CC5)cnc34)nc12` [Example 21, N-[(5-chloro-4-methyl-1H-benzimidazol-2-yl)methyl]-6-cyclopropyl-1-(1-methylpiperidin-4-yl)-1H-pyrazolo[3,4-b]pyrazin-3-amine], at CDK12, the DC50 worked out at 28.7 nM and the “(IC50 CDK12 high ATP) to (Degradation DC50 CDK12) ratio” value is listed as over 697. Also, at CDK12/CyclinK, the IC50 was over 20 µM.

Regarding `CN1CCC(n2nc(NCc3nc4cc(Cl)ccc4[nH]3)c3ncc(C4CC4)nc32)CC1` [Example 22, N-[(5-chloro-1H-benzimidazol-2-yl)methyl]-6-cyclopropyl-1-(1-methylpiperidin-4-yl)-1H-pyrazolo[3,4-b]pyrazin-3-amine], on CDK12, the DC50 came to 11.8 nM and the “(IC50 CDK12 high ATP) to (Degradation DC50 CDK12) ratio” value is recorded as over 1695. The IC50 on CDK12/CyclinK was over 20 µM.

Turning to `Fc1cccc2[nH]c(CNc3nn(C4CCOCC4)c4nc(C5CC5)cnc34)nc12` [Example 23, 6-cyclopropyl-N-[(4-fluoro-1H-benzimidazol-2-yl)methyl]-1-(oxan-4-yl)-1H-pyrazolo[3,4-b]pyrazin-3-amine], at CDK12, the DC50 worked out at 31.7 nM and the “(IC50 CDK12 high ATP) to (Degradation DC50 CDK12) ratio” value is listed as 388. Besides, the IC50 on CDK12/CyclinK was determined as 12.3 µM.

With `COc1cccc2[nH]c(CNc3nn(C4CCOCC4)c4nc(C5CC5)cnc34)nc12` [Example 24, 6-cyclopropyl-N-[(4-methoxy-1H-benzimidazol-2-yl)methyl]-1-(oxan-4-yl)-1H-pyrazolo[3,4-b]pyrazin-3-amine], on CDK12, the DC50 is 12 nM and the “(IC50 CDK12 high ATP) to (Degradation DC50 CDK12) ratio” value is on record as 1614. At CDK12/CyclinK, the IC50 stood at 18.2 µM.

Consider `CN1CCC(n2nc(NCc3nc4cc(C(F)(F)F)ccc4[nH]3)c3ncc(C4CC4)nc32)CC1` [Example 25, 6-cyclopropyl-1-(1-methylpiperidin-4-yl)-N-{[5-(trifluoromethyl)-1H-benzimidazol-2-yl]methyl}-1H-pyrazolo[3,4-b]pyrazin-3-amine], for which, at CDK12, the DC50 was 8.43 nM and the “(IC50 CDK12 high ATP) to (Degradation DC50 CDK12) ratio” value was 2193. Further, the IC50 at CDK12/CyclinK was found to be 17.3 µM.

Regarding `Cc1c(F)ccc2[nH]c(CNc3nn(C4CCN(C)CC4)c4nc(C5CC5)cnc34)nc12` [Example 26, 6-cyclopropyl-N-[(5-fluoro-4-methyl-1H-benzimidazol-2-yl)methyl]-1-(1-methylpiperidin-4-yl)-1H-pyrazolo[3,4-b]pyrazin-3-amine], on CDK12, the DC50 was 16 nM and the “(IC50 CDK12 high ATP) to (Degradation DC50 CDK12) ratio” value was over 509. Also, the IC50 at CDK12/CyclinK was over 20 µM.

With `CN1CCC(n2nc(NCc3nc4cc(SC(F)(F)F)ccc4[nH]3)c3ncc(C4CC4)nc32)CC1` [Example 27, 6-cyclopropyl-1-(1-methylpiperidin-4-yl)-N-({5-[(trifluoromethyl)sulfanyl]-1H-benzimidazol-2-yl}methyl)-1H-pyrazolo[3,4-b]pyrazin-3-amine], on CDK12, the DC50 worked out at 49.1 nM and the “(IC50 CDK12 high ATP) to (Degradation DC50 CDK12) ratio” value worked out at 41. In addition, the IC50 on CDK12/CyclinK worked out at 2.02 µM.

As to `Cc1ccc2[nH]c(CNc3nn(C4CCN(C)CC4)c4nc(C5CC5)cnc34)nc2c1C` [Example 28, 6-cyclopropyl-N-[(4,5-dimethyl-1H-benzimidazol-2-yl)methyl]-1-(1-methylpiperidin-4-yl)-1H-pyrazolo[3,4-b]pyrazin-3-amine], on CDK12, the DC50 was found to be 10.6 nM and the “(IC50 CDK12 high ATP) to (Degradation DC50 CDK12) ratio” value is listed as over 1880. Moreover, at CDK12/CyclinK, the IC50 was over 20 µM.

On to `CN1CCC(n2nc(NCc3nc4cc(Cl)c(F)cc4[nH]3)c3ncc(C4CC4)nc32)CC1` [Example 29, N-[(5-chloro-6-fluoro-1H-benzimidazol-2-yl)methyl]-6-cyclopropyl-1-(1-methylpiperidin-4-yl)-1H-pyrazolo[3,4-b]pyrazin-3-amine], for which, at CDK12, the DC50 amounted to 17.5 nM and the “(IC50 CDK12 high ATP) to (Degradation DC50 CDK12) ratio” value is recorded as over 1145. The IC50 on CDK12/CyclinK is over 20 µM.

Consider `CN1CCC(n2nc(NCc3nc4cc(F)c(F)cc4[nH]3)c3ncc(C4CC4)nc32)CC1` [Example 30, 6-cyclopropyl-N-[(5,6-difluoro-1H-benzimidazol-2-yl)methyl]-1-(1-methylpiperidin-4-yl)-1H-pyrazolo[3,4-b]pyrazin-3-amine], for which, on CDK12, the DC50 turned out to be 17.1 nM and the “(IC50 CDK12 high ATP) to (Degradation DC50 CDK12) ratio” value was over 1376. In addition, at CDK12/CyclinK, the IC50 was over 20 µM.

Consider `CN1CCC(n2nc(NCc3nc4c(Cl)c(F)ccc4[nH]3)c3ncc(C4CC4)nc32)CC1` [Example 31, N-[(4-chloro-5-fluoro-1H-benzimidazol-2-yl)methyl]-6-cyclopropyl-1-(1-methylpiperidin-4-yl)-1H-pyrazolo[3,4-b]pyrazin-3-amine], for which, on CDK12, the DC50 is 14.4 nM and the “(IC50 CDK12 high ATP) to (Degradation DC50 CDK12) ratio” value is given as over 1388. Also, the IC50 at CDK12/CyclinK is over 20 µM.

As to `Fc1ccc2[nH]c(CNc3nn(C4CCOCC4)c4nc(C5CC5)cnc34)nc2c1F` [Example 32, 6-cyclopropyl-N-[(4,5-difluoro-1H-benzimidazol-2-yl)methyl]-1-(oxan-4-yl)-1H-pyrazolo[3,4-b]pyrazin-3-amine], the DC50 on CDK12 turned out to be 11.5 nM. The IC50 at CDK12/CyclinK turned out to be 13.8 µM.

As to `Cc1cccc2[nH]c(CNc3nn(C4CCOCC4)c4nc(C5CC5)cnc34)nc12` [Example 33, 6-cyclopropyl-N-[(4-methyl-1H-benzimidazol-2-yl)methyl]-1-(oxan-4-yl)-1H-pyrazolo[3,4-b]pyrazin-3-amine], at CDK12, the DC50 was 8.65 nM and the “(IC50 CDK12 high ATP) to (Degradation DC50 CDK12) ratio” value was over 2312. Besides, the IC50 on CDK12/CyclinK was over 20 µM.

As to `FC1(F)CCC(n2nc(NCc3nc4ccccc4[nH]3)c3ncc(C4CC4)nc32)CC1` [Example 36, N-[(1H-benzimidazol-2-yl)methyl]-6-cyclopropyl-1-(4,4-difluorocyclohexyl)-1H-pyrazolo[3,4-b]pyrazin-3-amine], at CDK12, the DC50 was determined as 162 nM and the “(IC50 CDK12 high ATP) to (Degradation DC50 CDK12) ratio” value was over 124. Further, the IC50 on CDK12/CyclinK is over 20 µM.

For `c1ccc2[nH]c(CNc3nn(C4CCCC4)c4nc(C5CC5)cnc34)nc2c1` [Example 39, N-[(1H-benzimidazol-2-yl)methyl]-1-cyclopentyl-6-cyclopropyl-1H-pyrazolo[3,4-b]pyrazin-3-amine], on CDK12, the DC50 amounted to 38.2 nM and the “(IC50 CDK12 high ATP) to (Degradation DC50 CDK12) ratio” value is recorded as over 534. Also, at CDK12/CyclinK, the IC50 was over 20 µM.

Turning to `O[C@H]1C[C@@H](n2nc(NCc3nc4ccccc4[nH]3)c3ncc(C4CC4)nc32)C1` [Example 40, cis-3-(3-{[(1H-benzimidazol-2-yl)methyl]amino}-6-cyclopropyl-1H-pyrazolo[3,4-b]pyrazin-1-yl)cyclobutan-1-ol], at CDK12, the DC50 stood at 2.55 nM and the “(IC50 CDK12 high ATP) to (Degradation DC50 CDK12) ratio” value is over 7840. Besides, at CDK12/CyclinK, the IC50 was over 20 µM.
